Tested on: human fibroblasts
Test: Brefeldin A (BFA) treatment of human fibroblasts, immunofluorescence localization of huntingtin, 58 kDa Golgi protein and tubulin
Format: cell-based
Experimental: For the studies described herein, fibroblasts from passage number 10-15 were plated onto coverslips and grown in culture for 24-48 hours. Cells were rinsed briefly with phosphate buffered saline (PBS) and fixed for 10 minutes with 4% paraformaldehyde in PBS at room temperature. After fixation, cells were rinsed multiple times and stored at 4° C. in PBS. Huntingtin was immunolocalized in human fibroblasts using an affinity purified anti-peptide antibody, Ab 2527, at 2-4 μg/ml. In selected experiments, cells were also labeled with a monoclonal antiserum that recognizes clathrin heavy chain (2 μg/ml, Biodesign Int., Kennebunk, Me.), the Golgi-associated 58 kDa protein (ascites serum diluted 1:100, Sigma Chemical Co., St. Louis, Mo.), or human transferrin receptor (5 μg/ml, Zymed Laboratories Inc., San Francisco, Calif.). Cells were made permeable by a 30 minute incubation in 0.1% Triton® X-100 in PBS, rinsed several times, and blocked with 5% normal goat serum for 60 minutes prior to incubation in primary antibodies. All incubations, whether performed with a single type of antibody or two types of antibodies, were carried out overnight at 4° C. and were followed by multiple rinses in PBS. Secondary antibodies were used at a 1:400 dilution. A pooled mixture of either Texas Red goat anti-mouse IgG (Molecular Probes Inc., Eugene, Oreg.) and Bodipy FL anti-rabbit IgG (Molecular Probes Inc, Eugene, Oreg.) or Texas Red goat anti-mouse IgM (Vector Laboratories, Burlingame, Calif.) and Bodipy FL anti-rabbit IgG were used. For immunoperoxidase labeling, cells were rinsed several times after the primary incubation and an avidin/biotin blocking procedure was performed prior to the incubation in secondary antibody. A Vectastain ABC™ kit (Vector Laboratories, Burlingame, Calif.) was employed to localize the primary antibody, and diaminobenzidine was used as a substrate for visualization of the peroxidase reaction product. Sections were examined using conventional immunofluorescence microscopy and a Biorad 1024 laser confocal microscope. Image processing was performed with Adobe Photoshop™.
To further establish the association of huntingtin with Golgi membranes, cells were treated with the fungal metabolite Brefeldin A (BFA).
Cells were briefly rinsed with Hank's balanced salt solution (HBSS) and then incubated in complete medium containing BFA (5 μg/ml; Gibco/BRL). The cells were incubated at either 18° C. or 37° C. for 10 minutes, then rinsed briefly with 50 mM phosphate buffered saline (PBS; pH 7.4) and fixed immediately for 10 minutes with 4% paraformaldehyde in PBS at room temperature.

C[C@H]1CCC/C=C/[C@@H]2C[C@H](O)C[C@H]2[C@H](O)/C=C/C(=O)O1 [BFA, Brefeldin A]
Distribution of tubulin in BFA-treated cells (compared to untreated cells): unchanged
Huntingtin localization after mild BFA treatment (mild BFA treatment, 5 μg for 10 min at 18° C., human fibroblasts): fragmented and dispersed
Huntingtin localization after more severe BFA treatment (more severe BFA treatment, human fibroblasts): obliterated
Localization of huntingtin and the 58 kDa protein in the presence of bfa (figure legend) (normal fibroblasts, +bfa, FIGS. 3C and 3D): more widely dispersed from the nucleus and the Golgi-membrane architecture is disrupted
